Experimental findings from ChEMBL document CHEMBL3217415, “(Pd/C-mediated)couplingiodocyclizationcoupling strategy in discovery of novel PDE4 inhibitors: a new synthesis of pyrazolopyrimidines” (Medchemcomm, 2012) are described below.

The structures appear in SMILES notation. The source made the active and inactive calls. The rule behind the calls is not given here.

The species entered for series [1] is Danio rerio. The series is described as follows: Toxicity in zebrafish embryo assessed as effect on locomotory activity at 100 uM. It is filed as organism-based. Conditions: in vivo.
For series [2], the species on record is Danio rerio. The series is described as follows: Toxicity in zebrafish embryo assessed as mortality at 100 uM after 1 to 24 hrs. It is filed as organism-based. The conditions noted are these: in vivo.
Series [3] addresses T1, 3',5'-cyclic-AMP phosphodiesterase 4B (Homo sapiens, UniProt Q07343). The series is described as follows: Inhibition of His-tagged recombinant human PDE4B expressed in baculovirus infected sf9 cells using cAMP as substrate at 30 uM preincubated for 15 mins followed by substrate addition measured after 1 hr by luminescence assay.
For series [4], the target named is T2, 3',5'-cyclic-AMP phosphodiesterase 4D (Homo sapiens, UniProt Q08499). The series is described as follows: Inhibition of PDE4D3 (unknown origin) transfected in HEK293 cells assessed as forskolin-induced cAMP accumulation pretreated for 30 mins before forskolin challenge by luciferase reporter gene assay. The class given is cell-based.
The species named for series [5] is Danio rerio. The series is described as follows: Toxicity in zebrafish embryo assessed as mortality at 10 to 20 uM after 1 to 24 hrs. The class given is organism-based. The conditions noted are these: in vivo.
The species named for series [6] is Danio rerio. The series is described as follows: Toxicity in zebrafish embryo assessed as effect on locomotory activity at 20 uM after 24 hrs. It is filed as organism-based. The conditions noted are these: in vivo.
Series [7] has as its target 3',5'-cyclic-AMP phosphodiesterase 4A (Homo sapiens, UniProt P27815). The series is described as follows: Inhibition of PDE4A4 (unknown origin) transfected in HEK293 cells assessed as forskolin-induced cAMP accumulation pretreated for 30 mins before forskolin challenge by luciferase reporter gene assay. It is filed as cell-based.
For series [8], the species on record is Danio rerio. The series is described as follows: Toxicity in zebrafish embryo assessed as increase in abnormal lesions at 10 to 20 uM after 24 hrs. The class given is organism-based. Conditions: in vivo.
The target in series [9] is T1, 3',5'-cyclic-AMP phosphodiesterase 4B. The series is described as follows: Inhibition of PDE4B1 (unknown origin) transfected in HEK293 cells assessed as forskolin-induced cAMP accumulation pretreated for 30 mins before forskolin challenge by luciferase reporter gene assay. The class given is cell-based.
Series [10] deals with RAW264.7. The series is described as follows: Inhibition of LPS-induced TNFalpha production in mouse RAW264.7 cells pretreated for 30 mins before LPS challenge by ELISA assay. The class given is functional, cell-based.
For series [11], the target named is T1, 3',5'-cyclic-AMP phosphodiesterase 4B. The series is described as follows: Inhibition of His-tagged recombinant human PDE4B1 expressed in baculovirus infected sf9 cells using cAMP as substrate preincubated for 15 mins followed by substrate addition measured after 1 hr by luminescence assay.
The species named for series [12] is Danio rerio. The series is described as follows: Toxicity in zebrafish embryo assessed as effect on locomotory activity at 10 uM after 6 hrs. The conditions noted are these: in vivo. It is filed as organism-based.
For series [13], the species on record is Danio rerio. The series is described as follows: Toxicity in zebrafish embryo assessed as cardiac arrhythmia at 10 to 20 uM after 24 hrs by compound microscopy. The class given is organism-based, Heart. Conditions: in vivo.
Series [14] concerns the target T2, 3',5'-cyclic-AMP phosphodiesterase 4D. The series is described as follows: Inhibition of human PDE4D2 using cAMP substrate preincubated for 15 mins followed by substrate addition measured after 1 hr by luminescence assay.
For series [15], the species on record is Danio rerio. The series is described as follows: Toxicity in zebrafish embryo assessed as effect on locomotory activity at 10 to 20 uM after 1 to 24 hrs. The class given is organism-based. Conditions: in vivo.
Series [16] is filed under the species Danio rerio. The series is described as follows: Toxicity in zebrafish embryo assessed as lordosis at 10 to 20 uM after 1 to 24 hrs. The class given is organism-based. The conditions noted are these: in vivo.

T1 sequence (Q07343 whole entry): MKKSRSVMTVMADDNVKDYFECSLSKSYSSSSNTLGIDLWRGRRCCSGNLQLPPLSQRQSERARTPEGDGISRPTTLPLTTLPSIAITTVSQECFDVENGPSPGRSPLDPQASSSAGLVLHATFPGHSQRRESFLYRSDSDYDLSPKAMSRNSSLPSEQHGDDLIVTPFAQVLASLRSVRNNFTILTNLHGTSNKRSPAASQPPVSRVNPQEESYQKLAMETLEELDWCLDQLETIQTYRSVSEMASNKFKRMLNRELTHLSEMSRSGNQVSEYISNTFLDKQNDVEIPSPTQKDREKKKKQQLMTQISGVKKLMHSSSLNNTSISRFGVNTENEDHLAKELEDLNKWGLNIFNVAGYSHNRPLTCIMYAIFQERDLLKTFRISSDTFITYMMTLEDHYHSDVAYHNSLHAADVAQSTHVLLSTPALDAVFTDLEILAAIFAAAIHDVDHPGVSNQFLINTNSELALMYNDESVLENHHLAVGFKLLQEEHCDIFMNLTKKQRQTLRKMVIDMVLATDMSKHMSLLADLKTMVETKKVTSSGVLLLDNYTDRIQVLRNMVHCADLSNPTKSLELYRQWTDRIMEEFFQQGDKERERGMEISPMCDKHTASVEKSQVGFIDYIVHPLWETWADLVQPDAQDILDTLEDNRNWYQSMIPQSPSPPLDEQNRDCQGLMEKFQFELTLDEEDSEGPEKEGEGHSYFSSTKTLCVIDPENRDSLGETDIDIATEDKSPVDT
T2 sequence (Q08499 whole entry): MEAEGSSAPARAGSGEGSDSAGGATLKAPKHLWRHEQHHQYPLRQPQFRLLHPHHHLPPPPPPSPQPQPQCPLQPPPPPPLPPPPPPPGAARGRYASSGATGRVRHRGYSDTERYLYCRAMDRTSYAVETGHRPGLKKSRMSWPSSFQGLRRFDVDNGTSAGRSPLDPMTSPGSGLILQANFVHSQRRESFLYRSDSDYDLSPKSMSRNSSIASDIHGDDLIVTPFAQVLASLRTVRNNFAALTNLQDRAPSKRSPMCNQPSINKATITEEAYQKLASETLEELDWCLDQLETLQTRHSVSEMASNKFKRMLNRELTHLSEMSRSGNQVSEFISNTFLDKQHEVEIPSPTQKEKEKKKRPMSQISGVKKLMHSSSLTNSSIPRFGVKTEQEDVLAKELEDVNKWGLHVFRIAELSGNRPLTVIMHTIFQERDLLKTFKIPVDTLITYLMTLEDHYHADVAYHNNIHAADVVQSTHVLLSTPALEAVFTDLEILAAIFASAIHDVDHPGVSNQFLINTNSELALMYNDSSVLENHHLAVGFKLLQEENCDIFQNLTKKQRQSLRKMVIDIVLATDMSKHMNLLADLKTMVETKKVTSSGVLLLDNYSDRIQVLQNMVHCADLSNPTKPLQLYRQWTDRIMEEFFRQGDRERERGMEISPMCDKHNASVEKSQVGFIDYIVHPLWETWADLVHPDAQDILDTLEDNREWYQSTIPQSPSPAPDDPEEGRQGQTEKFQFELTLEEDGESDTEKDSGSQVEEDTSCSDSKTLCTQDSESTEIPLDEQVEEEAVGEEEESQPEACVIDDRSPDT
Chain of 3',5'-cyclic-AMP phosphodiesterase 4A (P27815 whole entry): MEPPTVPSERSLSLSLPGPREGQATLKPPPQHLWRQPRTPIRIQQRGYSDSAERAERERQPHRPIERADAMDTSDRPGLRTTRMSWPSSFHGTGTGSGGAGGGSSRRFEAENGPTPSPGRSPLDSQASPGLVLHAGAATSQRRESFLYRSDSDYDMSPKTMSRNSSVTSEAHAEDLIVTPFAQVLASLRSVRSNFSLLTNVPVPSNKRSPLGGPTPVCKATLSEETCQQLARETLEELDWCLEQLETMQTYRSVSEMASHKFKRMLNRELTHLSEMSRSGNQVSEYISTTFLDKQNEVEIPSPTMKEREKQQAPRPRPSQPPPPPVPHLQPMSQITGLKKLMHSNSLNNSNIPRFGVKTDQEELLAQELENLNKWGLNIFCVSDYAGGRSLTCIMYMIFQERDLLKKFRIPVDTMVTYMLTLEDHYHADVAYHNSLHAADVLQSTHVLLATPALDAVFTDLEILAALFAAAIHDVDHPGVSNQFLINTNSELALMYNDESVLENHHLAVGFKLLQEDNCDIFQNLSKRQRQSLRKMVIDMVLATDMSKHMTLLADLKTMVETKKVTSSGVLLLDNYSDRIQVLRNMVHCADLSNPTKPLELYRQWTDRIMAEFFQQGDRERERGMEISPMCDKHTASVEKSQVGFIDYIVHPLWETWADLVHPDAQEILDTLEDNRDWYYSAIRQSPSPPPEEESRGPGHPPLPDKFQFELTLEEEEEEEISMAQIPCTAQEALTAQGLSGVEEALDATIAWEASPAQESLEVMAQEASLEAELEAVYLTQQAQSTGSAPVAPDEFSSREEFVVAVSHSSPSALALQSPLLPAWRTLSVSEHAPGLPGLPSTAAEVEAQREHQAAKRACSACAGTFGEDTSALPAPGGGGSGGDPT

In the case of `CC(C)(C)c1ccc(C(O)CCCN2CCC(C(O)(c3ccccc3)c3ccccc3)CC2)cc1` (stereo not drawn) [TERFENADINE], the Activity result in series [1] and in [2] was “Toxic” in each case.

With `O=c1oc(-c2ccccc2)c(-c2cnc3ccccc3c2)c2nn3c(-c4ccccc4)ccnc3c12`, the inhibition in series [3] came to 74%.

Turning to `O=c1oc(-c2ccccc2)c(-c2ccc(F)cc2)c2nn3c(-c4ccccc4)ccnc3c12`, the inhibition in [3] came out at 66%.

`CCCCCCc1oc(=O)c2c(nn3c(-c4ccccc4)ccnc23)c1/C=C/C(=O)OC(C)(C)C`: the inhibition entry in series [3] was “inactive”.

In the case of `O=c1oc(-c2ccccc2)c(-c2cccc([N+](=O)[O-])c2)c2nn3c(-c4ccccc4)ccnc3c12`, the inhibition in series [3] is 74%.

On to `CCCCCCc1oc(=O)c2c(nn3c(-c4ccccc4)ccnc23)c1-c1cccc(C(N)=O)c1`, for which the inhibition in series [3] was 85%.

Turning to `CCCCCCc1oc(=O)c2c(nn3c(-c4ccccc4)ccnc23)c1/C=C/C(=O)OCC`, in series [3], the inhibition entry was “inactive”.

Consider `CCCCCC#Cc1c(CCCCCC)oc(=O)c2c1nn1c(-c3ccccc3)ccnc21`, for which the inhibition in series [3] stood at 50%.

In the case of `NC(=O)c1cccc(-c2c(-c3ccccc3)oc(=O)c3c2nn2c(-c4ccccc4)ccnc32)c1`, the EC50 in series [4] was 9620 nM; in [7] it was 11700 nM; in [9], 6320 nM. Moreover, the Activity result in [5] is recorded as “Non-toxic”; in series [6] it was “Non-toxic”; in series [8], “Non-toxic”; in series [12] it was “Toxic”; in [13], “Non-toxic”. For the same compound, the IC50 in series [10] was found to be 450 nM; in series [11], 1330 nM; in series [14], 2840 nM. Further, the inhibition in series [3] is 93%.

As for `CCCCCC#Cc1c(-c2ccccc2)oc(=O)c2c1nn1c(-c3ccccc3)ccnc21`, the inhibition in series [3] turned out to be 50%.

`COc1ccc(C2CNC(=O)C2)cc1OC1CCCC1` (stereo not drawn) [ROLIPRAM]: the Activity entry is recorded as “Toxic” in series [5]; “Toxic” in [8]; “Toxic” in series [15]; “Toxic” in series [16]; “Non-toxic” in [13]. Besides, in [10], the IC50 is 190 nM.
